{"source": "patent US9986723B2", "about": "“Screen and use of therapeutics for pancreatic ductal adenocarcinoma” (The Board of Regents of the University of Texas System, priority 2014, dated 2018)", "system": "C5LM2 cells", "experiment": "Liver metastases after intrasplenic tumor cell injection", "format": "in vivo, mouse", "details": "warfarin 1 mg/L, pre or post (48 hrs) tumor cell injection", "procedure": "FIGS. 25A-I. Axl inhibition reduces colony formation and enhances chemotherapy. (FIGS. 25A-C) parental Mia PaCa-2 cells or Mia PaCa-2 cells stably transfected with shRNA targeting Axl (Mia shAxl) were grown as spheroids in matrigel for 7 days in the presence or absence of warfarin (200 ng/ml), n=4/condition. Mia PaCa-2 cell colonies form large stellate colonies characteristic of invasive tumor growth. Colonies and cognate cell projections were imaged (FIG. 25A) with a Nikon Phase contrast microscope using 40× and 200× magnification. Mean total colony number (FIG. 25B) and total colony area+/−s.d. (FIG. 25C) reflective of invasive growth were calculated using Image J image analysis. […] (FIG. 25E) liver metastases were quantified after intrasplenic injection of C5LM2 cells. […] Mice were sacrificed when control treated animals were moribund and primary and metastatic burden was determined. […]\nAnimal studies. […] Mice with established tumors, as determined by sonography were randomized to receive normal drinking water or water containing 1 mg/L (˜3.0 μM) warfarin for experiments in immunocompromised mice and 0.5 mg/L (˜1.5 μM) in experiments in immunocompetent animals with or without gemcitabine 25 mg/kg twice weekly depending on experimental design. […] Metastatic incidence was determined by visual inspection of the liver and abdominal cavity and confirmed by H&E of liver sections. […]", "data": [{"smiles": "CC(=O)CC(c1ccccc1)c1c(O)c2ccccc2oc1=O", "note": "(racemic) [Warfarin]", "values": [{"measurement": "liver colonization after intrasplenic injection", "result": "inhibited liver colonization"}]}]}
